Source: patent US12161675B2, “Production method for culture supernatant preparation” (LABORATORY OF CELL APPLIED TECHNOLOGIES, CO, priority 2018, dated 2024)

How the values were obtained:
[1] = Storage stability of freeze-dried culture supernatant (VEGF protein by ELISA); assay type: physicochemical; conditions: for Value of VEGF relative quantification at each storage temperature: trehalose 250 mM
Experimental: As was in Example 5, the culture supernatant after 48 hours in the second culturing step was recovered and the culture supernatant obtained by centrifugal separation (740G, 5 minutes) was divided into 2 groups, a no addition group and a group with addition of 250 mM trehalose (manufactured by Hayashibara Co., Ltd.). Subsequently, the culture supernatant was passed through a filtration filter (KURABO INDUSTRIES Ltd.) having a membrane pore diameter of 0.2 micrometers and aliquoted into syringes (Terumo Corp.). The syringes were sealed in sterile bags, frozen in a −80° C. freezer, and then transferred to the inside of the freeze-drying device (Yamato Scientific Co., Ltd.) to perform freeze drying. After the completion of freeze drying, the syringes were sealed with luer caps for syringe (Terumo Corp.). The freeze-dried samples were stored in a sealed state under three temperature conditions of −80° C., 4° C., and 25° for 3 weeks. After 3 weeks, the freeze-dried samples were resuspended in water for injection (manufactured by Otsuka Pharmaceutical Co., Ltd.) and protein quantification was performed using QUANTIKINE ELISA Human VEGF (manufactured by R&D Systems, Inc.). As a quantitative value, a relative quantitative value of the VEGF protein at each storage temperature was calculated by taking a quantitative value of the VEGF protein included in the culture supernatant stored at −80° C. for 3 weeks as a reference.

[2] = tested on: VEGF protein; assay: VEGF protein in ASC culture supernatant by QUANTIKINE ELISA; assay type: cell-based, human; conditions: 48 hours; for VEGF concentration: ASC culture supernatant, 0 ng/mL gave 199.5
Experimental: (§1) Adipose tissue-derived mesenchymal stromal cells extracted by subjecting normal human adipose tissues to an enzyme treatment were cultured using a DME medium (Dulbecco's modified eagle medium manufactured by Gibco, high glucose) including 20% fetal bovine serum (FBS) in a non-treated culture flask (manufactured by FALCON) as primary culture. The primary culture cells right before confluency were recovered by an enzyme treatment, seeded on a non-treated 12-well culture plate (manufactured by Sumitomo Bakelite Co., Ltd.) using the same medium, and cultured until becoming confluent.
(§2) After rinsing the cells, the medium was replaced with an FBS-free DME medium or HBSS (Hanks' balanced salt solution manufactured by Sigma-Aldrich Co.)-HEPES. Subsequently, 12 wells were divided into 4 groups each consisting of 3 wells, and the FBS-free DME medium was cultured in a 5% CO2 incubator (Reference example) and HBSS-HEPES was cultured in an incubator (Example). The culture supernatant in each well was recovered immediately after replacement (0 hours) and 3 hours, 6 hours, 24 hours, and 48 hours thereafter.
The culture supernatant recovered as described in cell culture and recovery of culture supernatant was passed through a filter having a diameter of 0.22 micrometers to prepare a sample for protein quantification.
Protein quantification of the sample was performed by using the QUANTIKINE ELISA (Human VEGF, FGF-2) kit from R&D Systems, Inc. and a quantitative value of each protein was obtained in accordance with the protocol of the kit.
The rinsed cells were divided into 4 groups each consisting of 3 wells and their culture media were replaced with HBSS-HEPES added with PGE1 (Prostandin manufactured by Maruishi Pharmaceutical. Co., Ltd.) at a concentration of 0 ng/ml, 4 ng/ml, 40 ng/ml, and 400 ng/ml, followed by culturing in an incubator (Example). At 48 hours after the replacement, the culture supernatant was recovered from each well and subjected to protein quantification using QUANTIKINE ELISA Human VEGF (manufactured by R&D Systems, Inc.). […] The complementary DNA was used to relatively quantify the VEGF gene expression level by real-time PCR (Rotor-Gene Q manufactured by QIAGEN).
After rising, three groups were each added with 3 mL, 2 mL, or 1 mL of HBSS (Hanks' balanced salt solution manufactured by Sigma-Aldrich Co.)-HEPES pH7.4 and cultured for 48 hours in an incubator (Example). Subsequently, each culture supernatant was recovered in a 5 mL tube (manufactured by BD Falcon) and the VEGF protein was quantified by using QUANTIKINE ELISA Human VEGF (manufactured by R&D Systems, Inc.). […] Then, the complementary DNA was used to relatively quantify the VEGF gene expression level by real-time PCR (Rotor-Gene Q manufactured by QIAGEN). […]

[3] = tested on: VEGF gene; assay: VEGF gene expression by real-time PCR in adipose tissue-derived mesenchymal stromal cells (ASC); assay type: cell-based, human; conditions: 48 hours; for Value of mRNA relative quantification (VEGF): 0 ng/mL = 1.00
Experimental: as §1
After confirming that the cells became confluent, the medium was removed and the cell surface was rinsed with PBS (Dulbecco's phosphate buffered saline manufactured by DS Pharma Biomedical Co., Ltd.).
as §2
After recovering the culture supernatant as described above, an RNA extraction solution ISOGEN (Nippon Gene Co., Ltd., No. 319-90211) was added to each well in an amount of 400 microliters and the total RNAs were extracted from the cells in accordance with a conventional method. The precipitate of the total RNAs obtained by using Ethachinmate (Nippon Gene Co., Ltd., No. 312-01791) was dissolved in nuclease-free water. The concentration of the total RNAs was measured using 1.5 microliters of the dissolved RNAs by NanoDrop (Thermo Fisher Scientific). One hundred nanograms of the total RNAs thus obtained were used to synthesize complementary DNA using an iScript cDNA synthesis kit (Bio-Rad Laboratories, Inc., No. 1708891), and the resulting complementary DNA was used for quantifying an expression level of each gene by real-time PCR (Rotor-Gene Q manufactured by QIAGEN).
The synthesized DNA, primers (QuantiTect Primer Assay, QIAGEN) specific for the gene to be detected and quantified, and a real-time PCR agent (RotorGene SYBR Green, QIAGEN) were mixed, and real-time PCR was performed by using the Rotor-Gene Q system (QIAGEN) to amplify fragments of the gene to be detected and quantified. In this operation, primers specific for β-Actin as a housekeeping gene were used for amplification in the same manner, and this amplification curve was used as a reference to relatively calculate a quantitative value of the gene desired to be detected and quantified. […]

[4] = ASC, HBSS-HEPES with PGE1 0 to 400 ng/ml

With OC[C@H]1O[C@H](O[C@H]2O[C@H](CO)[C@@H](O)[C@H](O)[C@H]2O)[C@H](O)[C@@H](O)[C@@H]1O [Trehalose, trehalose] the “Value of VEGF relative quantification at each storage temperature” value (from here on “Value of VEGF relative quantification”) ([1]; freeze-dried culture supernatant stored 3 weeks at 4° C., relative to −80° C.) was 0.96, the “Value of VEGF relative quantification” value ([1]; freeze-dried culture supernatant stored 3 weeks at 25° C., relative to −80° C.) was 0.73 and the “Value of VEGF relative quantification” value ([1]; freeze-dried culture supernatant stored 3 weeks at −80° C. (reference)) was 1.00. For the same compound, the “VEGF protein after storage of freeze-dried culture supernatant” value ([1]; stored 3 weeks under the environment of 25° C., trehalose final concentration 250 mM) was “suppressed the reduction”.

For CCCCC[C@H](O)/C=C/[C@H]1[C@H](O)CC(=O)[C@@H]1CCCCCCC(=O)O [PGE1], the VEGF concentration ([2]; HBSS-HEPES with PGE1 4 ng/mL) was 201.8 pg/mL, the VEGF concentration ([2]; HBSS-HEPES with PGE1 40 ng/mL) was 281. 5 pg/mL and the VEGF concentration ([2]; HBSS-HEPES with PGE1 400 ng/mL) was 299.0 pg/mL. For the same compound, the “protein amount (VEGF) in culture supernatant” value [2, 4] was “tended to increase”, the “Value of mRNA relative quantification (VEGF)” value ([3]; ASC in HBSS-HEPES with PGE1 4 ng/mL) was 0.88 and the “Value of mRNA relative quantification (VEGF)” value ([3]; ASC in HBSS-HEPES with PGE1 40 ng/mL) was 1.04. The “Value of mRNA relative quantification (VEGF)” value ([3]; ASC in HBSS-HEPES with PGE1 400 ng/mL) was 0.97 and the “relative quantitative value of the mRNA expression level (VEGF)” value [3, 4] was “remained substantially constant”.
